Consider 12 compounds from ChEMBL document CHEMBL1201862, “PubChem BioAssay data set” (2004).

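Where inhibition never reached the appropriate level, the endpoint shown equals the highest concentration tested. Otherwise, values were interpolated linearly from a five-concentration, 48-hour dose response in 96-well plates. The concentration for 50% growth inhibition is given as GI50.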 Calls of active or inactive are those of the source. No stated cut-off is given here; in the data, active = GI50 up to about 1.1 µM and inactive = higher. Some results are limits rather than exact numbers.

Holding throughout (experiment): NCI-60 cell line screen, 48 h
The test system of test [1] is Malme-3M.
For test [2], the system named is HCT-15.
Test [3] concerns OVCAR-8.
The test system of test [4] is SF-539.
For test [5], the system named is MOLT-4.
Test [6] deals with LOX IMVI.
Test [7] concerns UACC-257.
Test [8] relates to SNB-19.
The test system of test [9] is SN12C.
Test [10] deals with NCI-H226.
The test system of test [11] is ACHN.
Test [12] has as its system SK-OV-3.
Test [13] concerns CAKI-1.
In test [14] the test system is OVCAR-3.
The test system of test [15] is OVCAR-4.
Test [16] has as its system KM12.
Test [17] relates to UO-31.
The test system of test [18] is NCI-H522.

Turning to `CP(C)C.[Ag][I]`, the GI50 is 39.6 µM (inactive) in [1]; above 100 µM in test [2]; 50 µM (inactive) in test [3]; > 100 µM (inactive) in [4]; > 100 µM (inactive) in test [5]; 25.5 µM (inactive) in test [6]. The GI50 in test [7], in [8], in [9], in test [10], in [11] and in [12] was > 100 µM (inactive) throughout. For the same compound, the GI50 in test [13] was > 100 µM (inactive); in test [14], > 100 µM (inactive); in [15], 18.2 µM (inactive); in [16], > 100 µM (inactive); in test [17], > 100 µM (inactive).

As for `Cc1ccc(C(O)(c2ccc(C)cc2)c2ccccn2)cc1`, the GI50 in test [1] was > 100 µM (inactive); in test [2] it was above 100 µM; in [3], > 100 µM (inactive); in [4] it was > 100 µM (inactive); in [6], > 100 µM (inactive); in [7] it was > 100 µM (inactive). Further, the GI50 in test [8], in test [9], in [10], in test [11], in test [12] and in [13] was > 100 µM (inactive) each time. Besides, the GI50 in test [14] was > 100 µM (inactive); in [15], > 100 µM (inactive); in [16], > 10 µM (inactive); in test [17] it was 38.3 µM (inactive).

For the compound `O=C(Cc1nc2ccccc2s1)C(=O)Nc1ccc(Cl)cc1Cl`, the GI50 in test [1] is > 100 µM (inactive); in [2] it was above 100 µM; in test [3], > 100 µM (inactive); in [4], > 100 µM (inactive); in [5], > 100 µM (inactive); in test [6], > 100 µM (inactive). Besides, the GI50 was > 100 µM (inactive) in [7]; > 100 µM (inactive) in test [8]; > 100 µM (inactive) in test [9]; 77.6 µM (inactive) in [10]; > 100 µM (inactive) in test [11]; > 100 µM (inactive) in [12]. The GI50 in test [14], in test [15], in test [16] and in [17] was > 100 µM (inactive) throughout.

Turning to `COc1ccc2[nH]cc(CCNC(C)=O)c2c1` [MELATONIN], the GI50 in test [1] is > 100 µM (inactive); in test [18], > 100 µM (inactive); in test [2], 77.4 µM; in test [3] it was > 100 µM (inactive); in test [4] it was > 100 µM (inactive); in [5], > 100 µM (inactive). In addition, the GI50 in [6] is 39.8 µM (inactive); in test [7], > 100 µM (inactive); in test [8], > 100 µM (inactive); in test [9], > 100 µM (inactive); in test [11], > 100 µM (inactive); in test [12], > 100 µM (inactive). Further, the GI50 in [13], in test [14], in test [15], in test [16] and in test [17] was > 100 µM (inactive) in each case.

Turning to `CC(=O)OC1C(CCl)OC(N=[N+]=[N-])C(OC(C)=O)C1OC(C)=O` (configuration not stated), the GI50 in test [1] is > 100 µM (inactive); in test [18], > 100 µM (inactive); in test [2], above 100 µM; in [3] it was > 100 µM (inactive); in test [4], > 100 µM (inactive); in test [5], > 100 µM (inactive). The GI50 in test [7], in test [8], in [9], in test [11], in [12] and in test [13] was > 100 µM (inactive) in each case. In addition, the GI50 in test [14], in [15], in test [16] and in test [17] was > 100 µM (inactive) throughout.

Regarding `CCOC(=O)C(NO)C(Sc1ccccc1)c1ccc(OC)cc1` (configuration not stated), the GI50 in test [1] was > 100 µM (inactive); in [18], 34.8 µM (inactive); in [2] it was 68.9 µM; in test [3], > 100 µM (inactive); in test [4] it was > 100 µM (inactive); in test [5] it was 42.1 µM (inactive). For the same compound, the GI50 in test [6] is > 100 µM (inactive); in test [7], 65.9 µM (inactive); in test [8], > 100 µM (inactive); in test [9] it was > 100 µM (inactive); in [10], 81.8 µM (inactive); in [11], 71.3 µM (inactive). The GI50 was > 100 µM (inactive) in test [12], 91 µM (inactive) in test [14], 78.5 µM (inactive) in [16] and 68.5 µM (inactive) in test [17].

For `O=C1CCN2C(=Nc3cccc4cccc2c34)N1`, the GI50 was above 100 µM in [2]; > 100 µM (inactive) in test [3]; > 100 µM (inactive) in test [4]; > 100 µM (inactive) in [5]; > 100 µM (inactive) in test [6]; > 100 µM (inactive) in test [7]. Further, the GI50 in test [8], in test [9], in test [10], in test [11], in test [12] and in [15] was > 100 µM (inactive) each time. Moreover, the GI50 in [17] is 73.8 µM (inactive).

Regarding `Cc1[nH]c2ccccc2c1C1=NO/C(=N\O)C(c2c(C)[nH]c3ccccc23)C1` (configuration not stated), the GI50 is 53.2 µM (inactive) in test [1]; 43 µM in test [2]; 56.5 µM (inactive) in [3]; 23.6 µM (inactive) in [4]; 21.4 µM (inactive) in test [5]; 71.3 µM (inactive) in test [7]. In addition, the GI50 is 72.8 µM (inactive) in test [8]; 37 µM (inactive) in test [9]; 37.7 µM (inactive) in test [10]; 28.6 µM (inactive) in test [11]; 49.9 µM (inactive) in test [12]; 36.1 µM (inactive) in test [13]. The GI50 in [14] is 26.9 µM (inactive); in test [15], 39.1 µM (inactive); in [16], 38 µM (inactive); in test [17] it was 26.9 µM (inactive).

As for `C=C[C@@]12CCCCC1C/C(=C(/O)OC)C(=O)C2` (some centres not stated), the GI50 in test [18], in [3], in test [4], in test [5], in [6] and in test [7] was > 100 µM (inactive) in each case. The GI50 in test [8], in [9], in test [10], in test [11], in test [12] and in [13] was > 100 µM (inactive) in each case. For the same compound, the GI50 in [14], in [15], in [16] and in test [17] was > 100 µM (inactive) in each case.

On to `Cc1nc(N)sc1C(=O)/C=C/c1ccc(/C=C/C(=O)c2sc(NC(=O)CCCCCCCCC(=O)Nc3nc(C)c(C(=O)/C=C/c4ccc(/C=C/C(=O)c5sc(N)nc5C)cc4)s3)nc2C)cc1`, for which the GI50 is > 100 µM (inactive) in test [1]; 64.6 µM (inactive) in test [18]; above 100 µM in [2]; > 100 µM (inactive) in [3]; > 100 µM (inactive) in test [4]; > 100 µM (inactive) in [5]. Further, the GI50 in [6], in test [7], in test [8], in [9], in test [11] and in test [12] was > 100 µM (inactive) each time. The GI50 was 60.4 µM (inactive) in [13]; 62.8 µM (inactive) in test [14]; > 100 µM (inactive) in [15]; > 100 µM (inactive) in test [16]; > 100 µM (inactive) in test [17].

As to `COc1ccc(C(=O)C(C(=O)C(=O)Nc2ccc(Cl)c(Cl)c2)c2ccc(OC)cc2)cc1` (configuration not stated), the GI50 in test [1] is > 100 µM (inactive); in [2], above 100 µM; in [3] it was > 100 µM (inactive); in [4] it was > 100 µM (inactive); in [5], > 100 µM (inactive); in test [6] it was > 100 µM (inactive). In addition, the GI50 in [7], in test [8], in test [9], in test [10], in test [11] and in test [13] was > 100 µM (inactive) each time. The GI50 in [14], in [15], in test [16] and in test [17] was > 100 µM (inactive) throughout.

In the case of `Cc1cc(NS(=O)(=O)c2ccc(NC(=O)c3ccc(Cl)c4c(Nc5ccc(S(=O)(=O)N=C(N)N)cc5)c5ccccc5nc34)cc2)no1`, the GI50 in test [1] is > 100 µM (inactive); in test [18] it was 20 µM (inactive); in test [2], above 100 µM; in test [3] it was 38.2 µM (inactive); in test [4], 30.5 µM (inactive); in test [5], 15.2 µM (inactive). The GI50 in [6] was 28.1 µM (inactive); in test [7] it was > 100 µM (inactive); in test [8], 39.7 µM (inactive); in test [9], 32.3 µM (inactive); in test [11], > 100 µM (inactive); in test [12], > 100 µM (inactive). Further, the GI50 was 27 µM (inactive) in test [14], 68.5 µM (inactive) in test [15], 40.6 µM (inactive) in test [16] and > 100 µM (inactive) in test [17].
